Source: patent publication US11191840B2, “Compositions and methods relating to salts of specialized pro-resolving mediators” (Thetis Pharmaceuticals LLC, priority 2017, dated 2021)
Where a name gives a salt, the structure may show the parent alone. Read-outs that look alike come from different tables or passages of the source.

Tests used:
[1] = test system: two-cycle DSS colitis model; assay: Two-cycle DSS colitis model, concomitant RvE1-Mg-di-lysinate and 5-ASA; format: in vivo, mouse; settings: once-daily, RvE1-Mg-Lys 1.5 ug/d, 5-ASA 625 ug/d, alone or combined; for Colon Length / Normalized Spleen Weight / Total Histopath Score: at sacrifice; for Disease Activity Index: terminal (Day 27)
Protocol: (§1) In the study described in Example 17, a sub-chronic model was used to induce colitis in 8-week old C57B16/J mice by two cycles of DSS separated by a 10-day recovery period. Once-daily RvE1-Mg-di-lysinate treatment (15 ug/day) was initiated on Day 20, after DSS-induced colitis was established, and continued for 7 days via oral gavage, with mice sacrificed at the end of Day 27. This sub-chronic, 2-cycle DSS protocol was used to induce inflammation with an immunological profile that better models human IBD than a single cycle of DSS. Oh S Y et al. Comparison of experimental mouse models of inflammatory bowel disease. Int J Mol Med. 2014; 33(2):333-40. This experimental system also provides a representative model for treating patients with active disease where the therapeutic objective is induction of remission. This is important in human IBD because most patients have recurring disease flares. In addition, this study compared RvE1-Mg-di-lysinate to 5-aminosalicylate (5-ASA), which is used as standard-of-care first-line therapy for induction and maintenance of remission in ulcerative colitis and also for certain phenotypes of Crohn's Disease.
(§2) Disease activity was assessed daily using the same Disease Activity Index (DAI) that was used in Example 16. Following sacrifice, colons were excised, flushed with ice-cold PBS, their lengths were measured. Subsequently, H&E-stained colon tissue sections from each animal were also scored using an established scoring system of histopathological disease activity. See Dieleman L A, Palmen M J, Akol H, et al. Chronic experimental colitis induced by dextran sulphate sodium (DSS) is characterized by Th1 and Th2 cytokines. Clin Exp Immunol. 1998; 114(3):385-91.
In this study, we again used the two-cycle DSS colitis model described above, but with once-daily concomitant therapy of RvE1-Mg-di-lysinate (1.5 ug/day) and 5-ASA (625 ug/day). This co-therapy model was used because many patients that would be candidates for RvE1-Mg-di-lysinate treatment will likely continue taking 5-ASA, as this is common clinical practice even when patient are not well controlled on 5-ASA monotherapy.

[2] = Chemical stability against degradation, HPLC, solid in open test tubes at room temperature; format: physicochemical; settings: open test tube, room temperature 68-72 F, relative humidity 20-40%
Protocol: The stability of selected SPMs and their ionic derivatives based on Formulas I and IV was evaluated. The parent SPM and its solid ionic derivative were place in open test tubes and maintained at room temperature between 68-72 F and relative humidity between 20-40% for 6 or 8 weeks. […] Briefly, HPLC analysis was performed on a PFP column (Poroshell 120, PFP, 4.6×150 mm, […], Agilent), mounted on a Gilson HPLC system equipped with an ELS detector. The mobile phase consisted of a gradient between solution A, water, and solution B, acetonitrile, both containing 0.1% trifluoroacetic acid. The gradient program was 30-80% with respect to solution B. The flow rate was 0.5 mL/min. The appearance of new HPLC peaks as compared to the baseline HPLC tracing at the initial time point is indicative of decomposition products and the lack of stability. The absence of such new HPLC peaks the subsequent time points is indicative of stability.

DSS-induced colitis = assay: Sub-chronic two-cycle DSS colitis model, treatment from Day 20; format: in vivo, mouse; settings: for Colon Length / Disease Activity Index / Normalized Spleen Weight: Table 7, two cycles of DSS, once-daily oral gavage Day 20-27, 15 ug/day; for Reduction in DAI relative to Disease Control: 15 ug/day oral from Day 20
Protocol: as §1, §2

[3] = test system: dextran sulfate sodium (DSS) mouse model of colitis; assay: Dextran sulfate sodium (DSS) mouse model of colitis, acute, 7 days DSS; format: in vivo; settings: RvE1-Mg-di-lysinate 15 ug/day or equimolar RvE1; for Colon Length / Normalized Spleen Weight: at sacrifice after 7 days DSS, once-daily oral gavage; for Disease Activity Index: study day 7, 2% DSS in drinking water 7 days, once-daily oral gavage from day 0
Protocol: A representative compound of Formula IV, RvE1-Mg-di-lysinate, was tested for efficacy in the dextran sulfate sodium (DSS) mouse model of colitis. In this model system, DSS exposure disrupts intestinal barrier function, stimulating local inflammation and inducing a colitis phenotype that mimics the clinical and histopathological features of IBD. See e.g., Laroui H et al. Dextran sodium sulfate (DSS) induces colitis in mice by forming nano-lipocomplexes with medium-chain-length fatty acids in the colon. PLoS ONE. 2012; 7 (3):e32084.
In the present study, 8-week old male C57Bl/6J mice were randomized by weight to three experimental groups and administered 2% DSS (w/v) in drinking water for 7 days. Beginning on study day 0, animals were administered either RvE-Mg-di-lysinate (RvE-Mg-Lys), an equimolar dose of RvE1, or vehicle via once-daily oral gavage. Disease activity was assessed daily using an established Disease Activity Index (DAI). See e.g., Morin C, Blier P U, Fortin S. MAG-EPA reduces severity of DSS-induced colitis in rats. Am J Physiol Gastrointest Liver Physiol. 2016; 310 (10):G808-21. All animals were sacrificed after 7 days of DSS exposure and colons and spleens were harvested. Gross morphological markers of disease activity, including colon length and normalized spleen weight (mg per g body weight) were assessed.
The model system described in Example 16 represents an acute model of human IBD wherein once daily RvE1-Mg-di-lysinate treatment at a dose of 15 ug/day was used in a prophylactic mode to mitigate the onset of intestinal and systemic inflammation induced by administration of DSS. This is relevant to patients in need of maintenance therapy to prevent the recurrence of active disease.

[4] = test system: two-cycle DSS colitis model; assay: Two-cycle DSS colitis model, intracolonic versus oral administration; format: in vivo, mouse; settings: 15 ug/d, Day 20-27
Description: To further test the biological effects on disease activity of luminal absorption of RvE1 administered orally in the form of RvE1-Mg-di-lysinate, we compared direct intracolonic administration (similar to an enema) with oral administration. Whereas we had previously established that oral administration of RvE1-Mg-di-lysinate results in systemic and local colonic exposure to RvE1, intracolonic administration results in predominantly local exposure. We again used the two-cycle DSS colitis model described above, with treatment initiated on Day 20 and continued for 7 days, with mice sacrificed at the end of Day 27. To facilitate intracolonic drug delivery, mice were anesthetized via exposure to 2-4% isoflurane gas. Intracolonic administration of RvE1-Mg-di-lysinate or vehicle was performed, with all animals inverted for 5 minutes following dose administration. Intracolonic administration of RvE1-Mg-di-lysinate was associated with a significant reduction in DAI (P<0.01), colon length (P<0.05), spleen weight (P<0.05) and histopathological disease activity (P<0.05).

[5] = Pharmacokinetic analysis of blood and colon tissue after intracolonic administration; format: in vivo; settings: mouse, 15 ug/day; for Tmax: read-out: RvE1 Tmax (converted)
Description: Pharmacokinetic analysis of blood and colon tissue samples were collected in the course of the intracolonic efficacy study and these confirmed that intracolonic administration of RvE1-Mg-di-lysinate is associated with predominantly local RvE1 exposure and minimal uptake into circulation.

[6] = Single oral dose pharmacokinetics: RvE1 exposure in blood plasma, small intestine tissue and colon tissue; format: in vivo, mouse; settings: for Timing of RvE1 Cmax: oral administration; for Cmax / Tmax / AUC(0-t): male, C57BL6/J, mouse, single oral dose 10 mg/kg RvE1-Mg-di-lysinate; for AUC(0-t): read-out: AUC0-8 of RvE1
Protocol: To establish the oral pharmacokinetics (PK) of RvE1-Mg-di-lysinate, a study was conducted to investigate RvE1 exposure in blood plasma, small intestine tissue, and colon tissue following a single oral dose of RvE1-Mg-di-lysinate (10 mg/kg) in 8-week old male C57BL6/J mice at various time points up to 8 hours post-dose. RvE1 levels were quantified in all tissue samples by HPLC-MS/MS. Pharmacokinetic curves for all tissue compartments are shown in FIG. 5 and a summary of pharmacokinetic metrics is shown in Table 9.

[7] = at sacrifice Day 27, 15 ug/day oral, P<0.05
[8] = small intestine tissue, Small Intestine

In the case of `Nc1ccc(O)c(C(=O)O)c1` [Compound 5-ASA, 5-aminosalicylate, reference compound], the “Colon Length” value [1] is reported as 78.7 ± 6.7 mm, the “Normalized Spleen Weight” value [1] is reported as 4.1 ± 1.3 mg/g BW and the “Total Histopath Score” value [1] is reported as 16 ± 3.8. For the same compound, the “Disease Activity Index” value [1] was 3.3 ± 0.8.
With `CC[C@@H](O)/C=C/C=C\C[C@@H](O)/C=C/C=C/C=C\[C@@H](O)CCCC(=O)O` [RvE1 Ca di-lysinate, bis(RvE1) calcium L-lysinate salt] the “Degradation products by HPLC (chemical stability)” value (shortened to “Degradation products by HPLC”) ([2]; 6 weeks) was “No additional peaks corresponding to degradation products were observed”.
For `CC[C@@H](O)/C=C/C=C\C[C@@H](O)/C=C/C=C/C=C\[C@@H](O)CCCC(=O)O` [RvE1 lys lys, RvE1 (L,L)-lysyllysine salt], the “Degradation products by HPLC” value ([2]; 8 weeks) was “without degradation products”.
With `CC[C@@H](O)/C=C/C=C\C[C@@H](O)/C=C/C=C/C=C\[C@@H](O)CCCC(=O)O` [RvE1, (5S,6Z,8E,10E,12R,14Z,16E,18R)-5,12,18-trihydroxyicosa-6,8,10,14,16-pentaenoic acid, reference compound] the “Degradation products by HPLC” value ([2]; 8 weeks) was “extensively degraded”, the “Colon Length” value (DSS-induced colitis) was 75.2 ± 7.6 mm and the “Disease Activity Index” value (DSS-induced colitis) was 5.6 ± 1.1. For the same compound, the “Normalized Spleen Weight” value (DSS-induced colitis) was 3.9 ± 0.7 mg/g BW, the “Colon Length” value [3] was 75.2 ± 7.6 mm and the “Normalized Spleen Weight” value [3] was 3.9 ± 0.7 mg/g BW. The “Disease Activity Index” value [3] was 5.6 ± 1.1.
With `CC[C@@H](O)/C=C/C=C\C[C@@H](O)/C=C/C=C/C=C\[C@@H](O)CCCC(=O)O` [RvE1-Mg-Lys, bis(RvE1) magnesium L-lysinate salt] the “Degradation products by HPLC” value ([2]; 8 weeks, listed as RvE1 Mg di-lysinate) was “did not exhibit any degradation products”, the “Reduction in DAI relative to Disease Control” value (DSS-induced colitis; Day 21, P<0.01) was 24% and the “Reduction in DAI relative to Disease Control” value (DSS-induced colitis; Day 23, P<0.05) was 18%. The “Colon Length” value (DSS-induced colitis) was 77.1 ± 7.8 mm, the “Disease Activity Index” value (DSS-induced colitis) was 4.8 ± 1.3 and the “Normalized Spleen Weight” value (DSS-induced colitis) was 3.6 ± 0.9 mg/g BW. For the same compound, the “Histopathologic disease activity vs Disease Control (in words)” value (DSS-induced colitis; at sacrifice Day 27, 15 ug/day oral) was “non-significant reduction”, the “Colon length vs Disease Control (in words)” value (DSS-induced colitis; [7]) was “statistically significant increase” and the “Normalized spleen weight vs Disease Control (in words)” value (DSS-induced colitis; [7]) was “statistically significant reduction”. The “DAI relative to vehicle control (in words)” value (DSS-induced colitis; study day 27, 15 ug/day oral Day 20-27) was “statistically significant reduction”, the “Colon Length” value [3] was 77.1 ± 7.8 mm and the “Normalized Spleen Weight” value [3] was 3.6 ± 0.9 mg/g BW. For the same compound, the “Disease Activity Index” value [3] was 4.8 ± 1.3, the “Colon Length” value ([4]; Intracolonic) was 83.1 ± 5.4 mm and the “Disease Activity Index” value ([4]; Intracolonic) was 2.6 ± 1.9. The “Normalized Spleen Weight” value ([4]; Intracolonic) was 4.3 ± 0.9 mg/g BW, the “Total Histopath Score” value ([4]; Intracolonic) was 15 ± 2.7 and the “Colon Length” value ([4]; Oral) was 82.7 ± 5.6 mm. The “Disease Activity Index” value ([4]; Oral) was 2.6 ± 1.8, the “Normalized Spleen Weight” value ([4]; Oral) was 4.4 ± 1.4 mg/g BW and the “Total Histopath Score” value ([4]; Oral) was 15.9 ± 6.0. It also gave a Cmax ([5]; blood, read-out: Blood Cmax of RvE1) of 0.48 ng/mL, a Tmax ([5]; blood) of 15 min and a Cmax ([5]; colon tissue, read-out: Colon Cmax of RvE1) of 2800 ng/g. For the same compound, the Tmax ([5]; colon) was 15 min, the “Share of total RvE1 detected in colon tissue contributed by the increase at the time of blood plasma Cmax” value ([6]; colon tissue, 15 minutes after oral dose) was “less than 2%” and the “Timing of RvE1 Cmax” value ([6]; colon) was 4 h. The Cmax ([6]; colon tissue, Colon) was 19.8 ng/mL, the Tmax ([6]; colon tissue, Colon) was 240 min and the AUC(0-t) ([6]; colon tissue, Colon) was 72.9 ng·h/mL. It also gave a Cmax ([6]; plasma, Blood) of 471 ng/mL, a Tmax ([6]; plasma, Blood) of 15 min and an AUC(0-t) ([6]; plasma, Blood) of 128 ng·h/mL. The Cmax [6, 8] was 346 ng/mL, the Tmax [6, 8] was 120 min and the AUC(0-t) [6, 8] was 533 ng·h/mL. For the same compound, the “Timing of RvE1 Cmax” value ([6]; small intestine) was 2 h, the “Colon Length” value [1] was 77.3 ± 3 mm and the “Normalized Spleen Weight” value [1] was 6.6 ± 0.5 mg/g BW. The “Total Histopath Score” value [1] was 17.6 ± 2.7 and the “Disease Activity Index” value [1] was 3.7 ± 1.6.
